The values below come from publication PMC2866172 (Journal of medicinal chemistry, 2010).

For series [1] the following is noted: mice, [14C]INH, 10 mg/kg s.c., cited from earlier work.
For series [2] the following is noted: humans, cited from earlier work.
A short description of series [3]: PPB determination in pooled baboon plasma.
For series [4] the following is noted: about 3 h after i.v. administration of 108.7 mg INH, [14C]INH tracer; cited from earlier work.
For series [5] the following is noted: patients with inflamed meninges, single 3 g oral dose; cited from earlier work.
A short description of series [6]: Brain PET imaging in anesthetized baboons.
The conditions of series [7]: monkeys, 6 h after i.v. administration of [14C]RIF; cited from earlier work.
For series [8] the following is noted: patients, 150 mg oral dose, cited from earlier work.
Series [9] can be described thus: in vitro. The note with it: monkey, plasma.
Series [10] can be described thus: Torso PET imaging in anesthetized baboons. To be noted: for Calculated drug concentration in gallbladder / Calculated drug concentration in heart / Calculated drug concentration in kidney cortex / Calculated drug concentration in kidney medulla / Calculated drug concentration in liver / Calculated drug concentration in lung / Calculated drug concentration in plasma: calculated assuming 10 mg/kg dose, 17 kg baboon; for Concentration in gallbladder / Concentration in heart / Concentration in kidney cortex / Concentration in kidney medulla / Concentration in liver / Concentration in lung / Concentration in plasma: baboon, i.v.

Structures are written as SMILES. Where two headings read alike, the source gives them in different places.

As a reminder, the fraction unbound is free concentration divided by total concentration. A lower fraction unbound goes with little free substance. In the case of `NNC(=O)c1ccncc1` [INH, isoniazid], the “INH concentration in brain” value in [1] (30 min) is reported as 4.4 µg/g; in series [1] (60 min), 3.2 µg/g. The “INH CSF concentration” value is 1.9 µg/mL in [2] (8.5 mg/kg oral dose, 2 h) and 0.31 µg/mL in [2] (108.7 mg oral dose, 1 h). The same compound returned a fraction unbound at 10 min in [3] (monkey, pooled plasma) of 0.946. In [4], the “INH concentration in surgically removed normal human lung” value is 1.79 µg/g.

For `NC(=O)c1cnccn1` [PZA, pyrazinamide], in series [3] (pooled baboon plasma, 10 min room temperature, % unbound), the “PPB (value expressed as % of free fraction in plasma)” value was 91.32%. For the same compound, the “CSF concentration of PZA” value in series [5] is 50 µg/mL. The Blood-brain barrier penetration entry in [6] (healthy baboons, i.v., TAC, AUC and image) is on record as “excellent penetration”.

Regarding `CO[C@H]1/C=C/O[C@@]2(C)Oc3c(C)c(O)c4c(O)c(c(/C=N/N5CCN(C)CC5)c(O)c4c3C2=O)NC(=O)/C(C)=C\C=C\[C@H](C)[C@H](O)[C@@H](C)[C@@H](O)[C@@H](C)[C@H](OC(C)=O)[C@@H]1C` [RIF, rifampicin], in series [7], the “RIF concentration in heart” value was 10.11 µg/g, the “RIF concentration in kidney” value is given as 14.69 µg/g, the “RIF concentration in liver” value is given as 60.41 µg/g and the “RIF concentration in lung” value is given as 8.32 µg/g. The RIF bile concentration entry in series [8] (3–5 h) is given as “up to 538.5 µg/ml”. Also, in [8], the “RIF concentration in the liver” value is 22 to 35 µg/mL. The compound further had a fraction unbound at 10 min in [9] of 0.273.

Regarding `CO[C@H]1/C=C/O[C@@]2(C)Oc3c(C)c(O)c4cc(c(/C=N/N5CCN([11CH3])CC5)c(O)c4c3C2=O)NC(=O)/C(C)=C\C=C\C(C)[C@H](O)[C@@H](C)[C@@H](O)[C@@H](C)[C@H](OC(C)=O)[C@@H]1C` (stereo partly shown) [[^11C]RIF], in series [10] (15 min), the “Calculated drug concentration in gallbladder” value is “(121.40) µg/ml”, the “Calculated drug concentration in heart” value is recorded as “(7.28) µg/ml”, the “Calculated drug concentration in kidney cortex” value is listed as “(15.79) µg/ml” and the “Calculated drug concentration in kidney medulla” value is on record as “(36.39) µg/ml”. Besides, in series [10] (15 min), the “Calculated drug concentration in liver” value is reported as “(258.98) µg/ml”, the “Calculated drug concentration in lung” value is reported as “(5.03) µg/ml” and the “Calculated drug concentration in plasma” value was “(2.81) µg/ml”. In series [10] (30 min), the “Calculated drug concentration in gallbladder” value was “(586.34) µg/ml”, the “Calculated drug concentration in heart” value is “(5.28) µg/ml”, the “Calculated drug concentration in kidney cortex” value is on record as “(6.34) µg/ml” and the “Calculated drug concentration in kidney medulla” value is on record as “(11.63) µg/ml”. In series [10] (30 min), the “Calculated drug concentration in liver” value is listed as “(276.12) µg/ml”, the “Calculated drug concentration in lung” value is reported as “(2.83) µg/ml” and the “Calculated drug concentration in plasma” value is listed as “(1.50) µg/ml”. Also, in [10] (60 min), the “Calculated drug concentration in gallbladder” value is on record as “(983.24) µg/ml”, the “Calculated drug concentration in heart” value is “(1.93) µg/ml”, the “Calculated drug concentration in kidney cortex” value is listed as “(0.43) µg/ml” and the “Calculated drug concentration in kidney medulla” value is “(6.73) µg/ml”. For the same compound, in series [10] (60 min), the “Calculated drug concentration in liver” value is on record as “(288.05) µg/ml”, the “Calculated drug concentration in lung” value was “(2.53) µg/ml” and the “Calculated drug concentration in plasma” value is “(1.14) µg/ml”. Besides, in series [10] (90 min), the “Calculated drug concentration in gallbladder” value is reported as “(1009.99) µg/ml”, the “Calculated drug concentration in heart” value is recorded as “(6.80) µg/ml”, the “Calculated drug concentration in kidney cortex” value is “(8.19) µg/ml” and the “Calculated drug concentration in kidney medulla” value is reported as “(9.44) µg/ml”. Moreover, in series [10] (90 min), the “Calculated drug concentration in liver” value is on record as “(299.73) µg/ml” and the “Calculated drug concentration in plasma” value is “(1.16) µg/ml”. Besides, in series [10] (15 min after administration), the Concentration in gallbladder came out at 0.0714 %ID/cc, the Concentration in heart turned out to be 0.0043 %ID/cc, the “Concentration in kidney cortex” value came out at 0.0093 %ID/cc and the “Concentration in kidney medulla” value is listed as 0.0214 %ID/cc. In series [10] (15 min after administration), the Concentration in liver is given as 0.1523 %ID/cc, the Concentration in lung is 0.003 %ID/cc and the Concentration in plasma worked out at 0.00165 %ID/cc. Further, in series [10] (30 min after administration), the Concentration in gallbladder stood at 0.3449 %ID/cc, the Concentration in heart was found to be 0.0031 %ID/cc, the “Concentration in kidney cortex” value came to 0.0037 %ID/cc and the “Concentration in kidney medulla” value is 0.0068 %ID/cc. In [10] (30 min after administration), this compound yielded a Concentration in liver of 0.1624 %ID/cc, a Concentration in lung of 0.0017 %ID/cc and a Concentration in plasma of 0.00088 %ID/cc. In series [10] (60 min after administration), the Concentration in gallbladder is listed as 0.5784 %ID/cc, the Concentration in heart amounted to 0.0011 %ID/cc, the “Concentration in kidney cortex” value was 0.0003 %ID/cc and the “Concentration in kidney medulla” value is 0.004 %ID/cc. In series [10] (60 min after administration), the Concentration in liver is given as 0.1694 %ID/cc, the Concentration in lung is reported as 0.0015 %ID/cc and the Concentration in plasma was 0.00067 %ID/cc. In addition, in [10] (90 min after administration), the Concentration in gallbladder was 0.5941 %ID/cc, the Concentration in heart is 0.004 %ID/cc, the “Concentration in kidney cortex” value turned out to be 0.0048 %ID/cc and the “Concentration in kidney medulla” value was found to be 0.0056 %ID/cc. In addition, in series [10] (90 min after administration), the Concentration in liver is on record as 0.1763 %ID/cc and the Concentration in plasma is recorded as 0.00068 %ID/cc. The “Estimated concentration in whole brain, C30min” value in series [6] (30 min, estimated for 17 kg baboon, 10 mg/kg dose, signal assumed intact drug) is 1.09 µg/mL. In addition, the “Estimated concentration in whole brain, C60min” value in series [6] (60 min, estimated for 17 kg baboon, 10 mg/kg dose, signal assumed intact drug) is 0.912 µg/mL. In [6] (90 min, estimated for 17 kg baboon, 10 mg/kg dose, signal assumed intact drug), the “Estimated concentration in whole brain, C90min” value was 1.21 µg/mL. In addition, the “Concentration in whole brain, C30min” value in [6] (baboon, i.v., 30 min) stood at 0.000642 %ID/cc. For the same compound, the “Concentration in whole brain, C60min” value in [6] (baboon, i.v., 60 min) was 0.000536 %ID/cc. In addition, the “Concentration in whole brain, C90min” value in series [6] (baboon, i.v., 90 min) was 0.00071 %ID/cc.
